Assay results from PMC10102027, “Helquat dyes targeting G-quadruplexes as a new class of anti-HIV-1 inhibitors” (Scientific Reports, 2023).

Tested on: ss G4 LTR wild-type oligonucleotide
Experiment: Light-up experiment, ss G4 LTR
Format: binding, HIV-1
Settings: 4 μM compound
Procedure: There are many small molecular probes for specific G4 visualization in cells. […] To distinguish specifically the potential light-up triggered by helquat binding to G-quadruplexes in the HIV-1 LTR, we employed two control oligonucleotides, both unable to form G-quadruplexes (Fig. 6A): an LTR oligonucleotide sequence with two point mutations precluding G4 formation and an LTR oligonucleotide with a scrambled sequence (both adopted from[41]).
The selected compounds were incubated in the presence of the G4 LTR wild-type (wt) oligonucleotide, the G4 LTR M4 + M5 oligonucleotide containing mutations that disabled G-quadruplex formation (described previously[41]), and the G4 LTR scrambled-sequence oligonucleotide, or the buffer-only control. The compounds were tested at a compound:oligonucleotide ratio of 2:1 (4 μM compounds and 2 μM oligonucleotide) in PBS in a 384-well plate. Emission spectra were measured after excitation at 280 nm in a Tecan Infinite M1000 plate reader. The fluorescent image of the plate was taken with the Bio-Rad ChemiDoc imaging system after UV-light excitation. The Light-up titration experiment was performed similarly as described above with the exception that 4 μM compound 12 was incubated with serial dilutions (1:1) of oligonucleotides (ss G4 LTR wild type, G4 c-myc and G4 c-kit1) spanning final concentrations 2 to 0.002 μM. The excitation at 280 nm and emission at 600 nm were used to monitor the Light-up.

[1] = 2 μM oligonucleotide, excitation 280 nm

SMILES: Cn1cc(/C=C/c2cc(/C=C/c3cn(C)c4ccccc34)[n+]3c(c2)-c2c(ccc4c2-c2cccc[n+]2CCC4)CCC3)c2ccccc21 [Compound 12]
- fluorescence light-up [1]: strong and specific fluorescence
- maximum fluorescence intensity with non-G4-forming oligonucleotides (M4 + M5, scrambled), times lower than with wt [1]: 2.5 times
- fluorescence in light-up titration, ss G4 LTR versus c-myc and c-kit1 (oligonucleotide concentration of 0.5 μM and below, emission 600 nm): stronger fluorescence after incubation with ss G4 LTR
